Results from BigSolDB 2.1.

CCCc1ncc(C[n+]2ccccc2C)c(N)n1.Cl.[Cl-]
solubility (mole fraction)
Settings | 273.15 K | 278.15 K | 283.15 K | 288.15 K | 293.15 K | 298.15 K | 303.15 K | 308.15 K | 313.15 K
in 1,4-dioxane | – | – | – | 5.76e-05 | 7.08e-05 | 8.42e-05 | 9.99e-05 | 0.000115 | 0.000132
in acetone | 0.000227 | 0.000259 | 0.000291 | 0.000325 | 0.000359 | 0.000401 | 0.000444 | 0.000487 | 0.000533
in acetonitrile | 7.2e-06 | 9.3e-06 | 1.15e-05 | 1.42e-05 | 1.68e-05 | 1.98e-05 | 2.35e-05 | 2.79e-05 | 3.27e-05
in cyclohexanone | 0.000117 | 0.000146 | 0.000181 | 0.000217 | 0.000252 | 0.000287 | 0.000327 | – | –
in ethanol | 5.33e-05 | 6.8e-05 | 9.17e-05 | 0.000124 | 0.000159 | 0.000195 | 0.000232 | 0.000273 | 0.000319
in ethyl acetate | 2.48e-05 | 3.34e-05 | 4.3e-05 | 5.26e-05 | 6.41e-05 | 7.65e-05 | 8.91e-05 | 0.000104 | 0.00012
in isobutanol | 9.3e-06 | 1.3e-05 | 1.71e-05 | 2.18e-05 | 2.71e-05 | 3.33e-05 | 4.11e-05 | 4.98e-05 | 5.86e-05
in isopropanol | 1.12e-05 | 1.63e-05 | 2.25e-05 | 2.89e-05 | 3.83e-05 | 4.87e-05 | 6.13e-05 | 7.76e-05 | 9.49e-05
in methanol | 0.000272 | 0.000376 | 0.000476 | 0.00059 | 0.000722 | 0.000854 | 0.001 | 0.00115 | 0.0013
in n-butanol | 1.79e-05 | 2.34e-05 | 3.1e-05 | 3.89e-05 | 4.88e-05 | 6.01e-05 | 7.53e-05 | 9.25e-05 | 0.000109
in n-octanol | 2e-06 | 3.3e-06 | 4.9e-06 | 6.7e-06 | 9.5e-06 | 1.38e-05 | 1.86e-05 | 2.41e-05 | 3.01e-05
in n-propanol | 2.98e-05 | 4.12e-05 | 5.26e-05 | 6.51e-05 | 7.7e-05 | 9.09e-05 | 0.000106 | 0.000124 | 0.000142
